Assay results taken from patent US9000022B2 (Exelixis Patent Company LLC, priority 2005, dated 2015).

System: LXRα and/or LXRβ
Test: Co-transfection assay (LXRE luciferase reporter, CV-1 cells)
Type: cell-based, human
Conditions: tested as described in Example 33; IC50 or EC50 for LXRα and/or LXRβ, isoform not specified; read-out: activity (IC50 or EC50 for LXR)
Text: To measure the ability of compounds to activate or inhibit the transcriptional activity of LXR in a cell based assay, the co-transfection assay was used. It has been shown that LXR functions as a heterodimer with RXR. For the co-transfection assay, expression plasmids for LXR and RXR are introduced via transient transfection into mammalian cells along with a luciferase reporter plasmid that contains one copy of a DNA sequence that is bound by LXR-RXR heterodimers (LXRE; Willy, P. et. al. 1995). Treatment of transfected cells with an LXR agonist increases the transcriptional activity of LXR, which is measured by an increase in luciferase activity.
CV-1 African Green Monkey Kidney Cells Co-transfection expression plasmids, comprising full-length LXRα (pCMX-h LXRα, LXRβ (pCMX-hLXRβ), or RXRα (pCMX-RXR), reporter plasmid (LXREx1-Tk-Luciferase), and control (pCMX-Galactosidase expression vector) (Willey et al. Genes & Development 9 1033-1045 (1995)). Transfection reagent such as FuGENE6 (Roche). 1× Cell lysis buffer (1% Triton X 100 (J T Baker X200-07), 10% Glycerol (J T Baker M778-07), 5 mM Ditriotreitol (Quantum Bioprobe DTT03; add fresh before lysing), 1 mM EGTA (Ethylene Glycol-bis(B-Amino ethyl ether)-N,N,N′,N′-Tetracetic Acid) (Sigma E-4378), 25 mM Tricine (ICN 807420) pH 7.8) 1× Luciferase assay buffer (pH at 7.8) (0.73 mM ATP, 22.3 mM Tricine, 0.11 mM EDTA, 33.3 mM DTT) 1× Luciferrin/CoA (11 mM Luciferin, 3.05 mM Coenzyme A, 10 mM HEPES)
CV-1 cells were prepared 24 hours prior to the experiment by plating them into T-175 flasks or 500 cm^2 dishes in order to achieve 70-80% confluency on the day of the transfection. The number of cells to be transfected was determined by the number of plates to be screened. Each 384 well plate requires 1.92×10^6 cells or 5000 cells per well. DNA Transfection Reagent was prepared by mixing the required plasmid DNAs with a cationic lipid transfection reagent FuGENE6 (Roche) by following the instructions provided with the reagents. Optimal DNA amounts were determined empirically per cell line and size of vessel to be transfected. 10-12 mL of media was added to the DNA Transfection Reagent and this mixture was added to the cells after aspirating media from the T175 cm^2 flask. Cells were then incubated at least 5 hours at 37° C. to prepare screening cells.
Luciferase assay reagent was prepared by combining before use (per 10 mL): 10 mL 1× Luciferase assay buffer; 0.54 mL of 1× Luciferrin/CoA; 0.54 mL of 0.2 M Magnesium sulfate
Assay plates were prepared by dispensing 5 μL, of compound per well of a 384 well plate to achieve final compound concentration of 10 μM and no more than 1% DMSO. Media was removed from the screening cells, the cells trypsinized, harvested cells by centrifugation, counted, and plated at a density of approximately 5000 cells per well in the 384 well assay plate prepared above in a volume of about 45 μL. Assay plates containing both compounds and screening cells (50 μL in total volume) were incubated for 20 hours at 37° C.
After incubation with compounds, media was removed from the cells and lysis buffer (30 μL/well) added. After 30 minutes at ambient temperature, luciferase assay buffer (30 μL/well) was added and the assay plates read on a luminometer (PE Biosystems Northstar reader with on-board injectors, or equivalent). Plates were read immediately after addition of luciferase assay buffer.
The LXR/LNRE co-transfection assay can be used to establish the EC50/IC50 values for potency and percent activity or inhibition for efficacy. Efficacy defines the activity of a compound relative to a high control ((N-(3-((4-fluorophenyl)-(naphthalene-2-sulfonyl)amino)propyl)-2,2-dimethylpropionamide)) or a low control (DMSO/vehicle). The dose response curves are generated from an 8 point curve with concentrations differing by ½ LOG units. Each point represents the average of 4 wells of data from a 384 well plate. […]

IC50 or EC50 (potency, activation or inhibition)	SMILES
< 1 µM	CCS(=O)(=O)c1cccc(-c2ccc(-n3cc(C(C)(C)O)nc3-c3cccc(F)c3Cl)c(C)c2)c1 [Example 186, 2-(2-(2-chloro-3-fluorophenyl)-1-(3′-(ethylsulfonyl)-3-methylbiphenyl-4-yl)-1H-imidazol-4-yl)propan-2-ol]
1 to 10 µM	CC(C)(O)c1cn(-c2ccc(-c3ccc(CO)cc3)cc2)c(-c2cccc(Cl)c2Cl)n1 [Example 475, 2-(2-(2,3-dichlorophenyl)-1-(4′-(hydroxymethyl)biphenyl-4-yl)-1H-imidazol-4-yl)propan-2-ol]
< 1 µM	CC(C)(O)c1cn(-c2ccc(-c3ccc(CO)c(S(C)(=O)=O)c3)cc2)c(-c2ccccc2C(F)(F)F)n1 [Example 400, 2-{1-[4′-(hydroxymethyl)-3′-(methylsulfonyl)biphenyl-4-yl]-2-[2-(trifluoromethyl)phenyl]-1H-imidazol-4-yl}propan-2-ol]
< 1 µM	CCS(=O)(=O)c1cccc(-c2ccc(-n3cc(C(C)(C)O)nc3-c3ccccc3Cl)c(Cl)c2)c1 [Example 137, 2-(1-(3-chloro-3′-(ethyl-sulfonyl)biphenyl-4-yl)-2-(2-chlorophenyl)-1H-imidazol-4-yl)propan-2-ol]
< 1 µM	C/C(=N\O)c1cn(-c2ccc(-c3cccc(S(C)(=O)=O)c3)cc2)c(-c2ccccc2C(F)(F)F)n1 [Example 412, 1-{1-[3′-(methylsulfonyl)biphenyl-4-yl]-2-[2-(trifluoromethyl)phenyl]-1H-imidazol-4-yl}ethanone oxime]
< 1 µM	CC(C)(O)c1nc(-c2ccc(-c3cccc(S(C)(=O)=O)c3)cc2Cl)n(-c2c(Cl)cccc2Cl)c1Cl [Example 445, 2-(5-chloro-2-(3-chloro-3′-(methylsulfonyl)biphenyl-4-yl)-1-(2,6-dichlorophenyl)-1H-imidazol-4-yl)propan-2-ol]
< 1 µM	Cc1cc(-c2cccc(S(C)(=O)=O)c2)ccc1-c1nc(C(C)(C)O)cn1-c1ccccc1C(C)C [Example 61, 2-(1-(2-isopropylphenyl)-2-(3-methyl-3′-(methylsulfonyl)biphenyl-4-yl)-1H-imidazol-4-yl)propan-2-ol]
< 1 µM	CCS(=O)(=O)c1cccc(-c2ccc(-c3nc(C(C)(C)O)cn3-c3ccccc3C(C)C)c(C)c2)c1 [Example 62, 2-(2-(3′-(ethylsulfonyl)-3-methyl-biphenyl-4-yl)-1-(2-isopropylphenyl)-1H-imidazol-4-yl)propan-2-ol]
< 1 µM	Cc1cccc(Cl)c1-c1nc(C(C)(C)O)cn1-c1ccc(-c2ccc(CO)c(S(C)(=O)=O)c2)cc1F [Example 133, 2-(2-(2-chloro-6-methylphenyl)-1-(3-fluoro-4′-(hydroxymethyl)-3′-(methylsulfonyl)biphenyl-4-yl)-1H-imidazol-4-yl)propan-2-ol]
< 1 µM	Cc1cc(-c2cccc(S(C)(=O)=O)c2)ccc1-n1cc(C(C)(C)O)nc1-c1cccc(Cl)c1Cl [Example 179, 2-(2-(2,3-dichlorophenyl)-1-(3-methyl-3′-(methylsulfonyl)biphenyl-4-yl)-1H-imidazol-4-yl)propan-2-ol]
< 1 µM	Cc1cc(-c2cccc(S(C)(=O)=O)c2)ccc1-n1cc(C(C)(C)O)nc1-c1c(F)cccc1Cl [Example 187, 2-(2-(2-chloro-6-fluorophenyl)-1-(3-methyl-3′-(methylsulfonyl)biphenyl-4-yl)-1H-imidazol-4-yl)propan-2-ol]
> 10 µM	CS(=O)(=O)c1cccc(-c2ccc(-n3cc(C(=O)NCC(=O)O)nc3-c3c(Cl)cccc3Cl)c(Cl)c2)c1 [Example 461, 2-(1-(3-chloro-3′-(methyl-sulfonyl)biphenyl-4-yl)-2-(2,6-dichlorophenyl)-1H-imidazole-4-carboxamido)acetic acid]
1 to 10 µM	CCS(=O)(=O)c1cccc(-c2ccc(-n3cc(C(C)(C)O)nc3-c3c(Cl)cccc3Cl)cc2)c1 [Example 91, 2-(2-(2,6-dichlorophenyl)-1-(3′-(ethylsulfonyl)biphenyl-4-yl)-1H-imidazol-4-yl)propan-2-ol]

Second part, the compound before the results:

SMILES	IC50 or EC50 (potency, activation or inhibition)
CC(C)(O)c1cn(-c2ccc(-c3cccc(S(C)(=O)=O)c3)cc2Cl)c(-c2nccc3ccccc23)n1 [Example 33, 2-(1-(3-chloro-3′-(methyl-sulfonyl)biphenyl-4-yl)-2-(isoquinolin-1-yl)-1H-imidazol-4-yl)propan-2-ol]	< 1 µM
CCS(=O)(=O)c1cccc(-c2ccc(-n3cc(C(C)(C)O)nc3-c3cccc(Cl)c3C)c(C)c2)c1 [Example 190, 2-(2-(3-chloro-2-methylphenyl)-1-(3′-(ethylsulfonyl)-3-methylbiphenyl-4-yl)-1H-imidazol-4-yl)propan-2-ol]	< 1 µM
CCS(=O)(=O)c1cccc(-c2ccc(-n3cc(C(C)(C)O)nc3-c3cnccc3C(F)(F)F)cc2)c1 [Example 38, 2-(1-(3′-(ethylsulfonyl)biphenyl-4-yl)-2-(4-(trifluoromethyl)pyridin-3-yl)-1H-imidazol-4-yl)propan-2-ol]	> 10 µM
CC(C)(O)c1cn(-c2c(Cl)cccc2Cl)c(-c2ccc(-c3cccc(S(C)(=O)=O)c3)cc2Cl)n1 [Example 65, 2-(2-(3-chloro-3′-(methyl-sulfonyl)biphenyl-4-yl)-1-(2,6-dichlorophenyl)-1H-imidazol-4-yl)propan-2-ol]	< 1 µM
CC(C)(O)c1cn(-c2ccc(-c3cccc(S(C)(=O)=O)c3)cc2Cl)c(-c2cccc3ccccc23)n1 [Example 30, 2-(1-(3-chloro-3′-(methyl-sulfonyl)biphenyl-4-yl)-2-(naphthalen-1-yl)-1H-imidazol-4-yl)propan-2-ol]	< 1 µM
C=C(C)c1cn(-c2ccc(-c3cccc(S(=O)(=O)CC)c3)cc2)c(-c2cccc(Cl)c2Cl)n1 [Example 77, 2-(2,3-dichlorophenyl)-1-(3′-(ethylsulfonyl)biphenyl-4-yl)-4-(prop-1-en-2-yl)-1H-imidazole]	< 1 µM
Cc1cc(-c2cccc(S(C)(=O)=O)c2)ccc1-n1cc(C(C)(C)O)nc1-c1cccs1 [Example 41]	1 to 10 µM
Cc1cc(-c2ccc(-n3cc(C(C)(C)O)nc3-c3c(Cl)cccc3Cl)cc2)cc(S(C)(=O)=O)c1 [Example 106, 2-(2-(2,6-dichlorophenyl)-1-(′3-methyl-5′-(methyl-sulfonyl)biphenyl-4-yl)-1H-imidazol-4-yl)propan-2-ol]	1 to 10 µM
CC(C)(O)c1cn(-c2ccc(-c3ccc(CO)c(S(C)(=O)=O)c3)cc2Cl)c(-c2c(F)cccc2Cl)n1 [Example 147, 2-(1-(3-chloro-4′-(hydroxymethyl)-3′-(methylsulfonyl)biphenyl-4-yl)-2-(2-chloro-6-fluorophenyl)-1H-imidazol-4-yl)propan-2-ol]	< 1 µM
COc1ccc(-c2ccc(-n3cc(C(C)(C)O)nc3-c3ccccc3C(F)(F)F)cc2)cc1S(C)(=O)=O [Example 399, 2-{1-[4′-(methyloxy)-3′-(methyl-sulfonyl)biphenyl-4-yl]-2-[2-(trifluoromethyl)phenyl]-1H-imidazol-4-yl}propan-2-ol]	1 to 10 µM
